Measurements from ChEMBL document CHEMBL1201862, “PubChem BioAssay data set” (2004).
The source made the active and inactive calls.

How the values were obtained:
[1] = intracellular Trypanosoma cruzi inhibitors in host cells – cell-based, plate reader, cherry-pick samples, set 3, dose response (AID 651818); assay type: functional;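 note: compounds incubated with infected cells for about four days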
[2] = target: T1, Calpain-2 catalytic subunit (Sus scrofa, UniProt P43367); assay: m-calpain protease blockers, concentration series – biochemical, fluorogenic peptide substrate, dose response (AID 1420); assay type: functional
T1 sequence (P43367 whole entry): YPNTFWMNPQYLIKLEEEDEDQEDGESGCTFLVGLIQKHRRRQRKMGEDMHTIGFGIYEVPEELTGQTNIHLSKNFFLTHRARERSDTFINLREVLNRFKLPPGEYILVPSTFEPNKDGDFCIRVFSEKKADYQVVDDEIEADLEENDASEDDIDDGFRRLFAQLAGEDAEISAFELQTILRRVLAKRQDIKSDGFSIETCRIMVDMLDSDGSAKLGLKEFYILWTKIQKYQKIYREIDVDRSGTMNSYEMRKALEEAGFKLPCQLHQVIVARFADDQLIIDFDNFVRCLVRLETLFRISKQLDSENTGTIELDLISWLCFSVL

[3] = Trypanosoma cruzi growth suppression in host cells – NIH3T3 host cells, beta-gal luminescence, confirmation (AID 2044); assay type: functional, cell-based;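 note: intracellular parasites grown in NIH/3T3 mouse fibroblasts as host cells; luminescent beta-galactosidase reporter signal from transgenic T. cruzi replicating inside host cells; inhibitors lower the luminescence signal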
[4] = target: T2, Fatty acid synthase (Homo sapiens, UniProt P49327); assay: inhibition of human FAS-TE enzyme activity – biochemical, kinetic fluorescence intensity, dose response (AID 624326); assay type: functional;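 note: rate of fluorescence rise from hydrolysis of a fluorogenic O-methyl fluorescein ester substrate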
[5] = target: T2, Fatty acid synthase; assay: inhibition of human FAS-TE enzyme activity – biochemical, endpoint fluorescence intensity, uHTS hits, dose response (AID 624327); assay type: functional;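 note: fluorescence from hydrolysis of an O-methyl fluorescein acyl ester substrate by the enzyme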
[6] = NIH3T3 cell viability loss – ATP luminescence, mouse fibroblasts, counter-screen, dose response (AID 2010); assay type: functional, cell-based;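 note: cells exposed to compound for about 90 hours before reading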
[7] = blockers of HIV-1 envelope-mediated cell-cell fusion – cherry-pick, dose response (AID 652057); assay type: functional, cell-based
[8] = off-target signal loss in HeLa-CEM21 co-culture – HeLa F-luc CTL cells, cherry-picked, counter-screen for HIV-1 Env fusion inhibitor project, dose response (AID 652040); assay type: functional, cell-based;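 note: potency for signal decrease marking cytotoxic or nonspecific inhibition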
[9] = HIV-1 AD8 envelope cell-cell fusion blockers – cherry-pick, dose response (AID 652062); assay type: functional, cell-based;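 note: luciferase signal from cell-cell fusion driven by HIV-1 clade B AD8 Env; potency is for inhibitors of fusion seen as a drop in luminescence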
[10] = target: T3, Short transient receptor potential channel 4 (Mus musculus, UniProt Q9QUQ5); assay: calcium entry via TRPC4 opening agents – cell-based, HEK293 TRPC4/mu-opioid, Fluo-4 calcium, dose response (AID 434937); assay type: functional
T3 sequence (Q9QUQ5 whole entry): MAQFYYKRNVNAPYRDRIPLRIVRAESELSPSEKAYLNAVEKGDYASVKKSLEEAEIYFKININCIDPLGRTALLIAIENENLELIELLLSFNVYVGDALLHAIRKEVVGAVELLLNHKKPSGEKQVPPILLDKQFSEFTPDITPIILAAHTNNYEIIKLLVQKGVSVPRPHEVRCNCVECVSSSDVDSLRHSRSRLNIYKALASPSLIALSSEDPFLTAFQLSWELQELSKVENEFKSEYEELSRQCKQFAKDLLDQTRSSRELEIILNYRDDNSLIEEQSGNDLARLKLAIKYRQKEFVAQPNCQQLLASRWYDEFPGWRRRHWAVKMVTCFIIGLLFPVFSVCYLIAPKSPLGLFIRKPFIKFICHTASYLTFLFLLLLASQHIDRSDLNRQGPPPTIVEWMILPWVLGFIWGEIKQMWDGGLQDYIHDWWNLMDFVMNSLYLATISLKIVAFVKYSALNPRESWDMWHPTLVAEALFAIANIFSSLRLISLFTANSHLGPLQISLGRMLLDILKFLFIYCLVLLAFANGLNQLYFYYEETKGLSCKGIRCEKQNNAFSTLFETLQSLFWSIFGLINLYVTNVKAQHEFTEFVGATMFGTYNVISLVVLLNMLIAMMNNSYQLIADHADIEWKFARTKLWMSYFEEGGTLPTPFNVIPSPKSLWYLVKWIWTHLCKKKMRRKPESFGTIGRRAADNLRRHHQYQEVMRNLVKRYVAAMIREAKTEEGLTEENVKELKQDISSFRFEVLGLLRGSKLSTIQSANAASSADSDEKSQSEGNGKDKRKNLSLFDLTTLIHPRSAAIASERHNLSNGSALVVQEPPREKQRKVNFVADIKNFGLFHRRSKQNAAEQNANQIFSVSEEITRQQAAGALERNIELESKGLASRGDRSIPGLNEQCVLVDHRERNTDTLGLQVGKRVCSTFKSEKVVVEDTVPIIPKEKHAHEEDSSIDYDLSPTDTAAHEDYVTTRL

[11] = target: Genome polyprotein (dengue virus type 2, UniProt P29990); assay: flavivirus cap methylation enzyme inhibition – biochemical, confirmation dose response, primary screen (AID 588689); assay type: functional
[12] = target: T4, RNA-binding protein pos-1 (Caenorhabditis elegans, UniProt G5EF15); assay: disruptors of C. elegans POS-1 RNA interaction – biochemical, fluorescence polarization, dose response (AID 1964);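 note: purified POS-1 fused to maltose binding protein made in E. coli; potency of compounds blocking POS-1 binding to fluorescent RNA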
T4 sequence (G5EF15 whole entry): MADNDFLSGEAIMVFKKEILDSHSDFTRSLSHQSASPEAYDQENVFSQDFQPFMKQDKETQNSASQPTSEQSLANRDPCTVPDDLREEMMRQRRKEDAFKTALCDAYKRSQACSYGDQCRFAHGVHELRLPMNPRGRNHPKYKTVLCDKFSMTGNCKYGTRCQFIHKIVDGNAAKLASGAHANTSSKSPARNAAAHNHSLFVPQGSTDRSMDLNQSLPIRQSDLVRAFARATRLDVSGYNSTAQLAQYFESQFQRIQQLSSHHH

[13] = target: T5, Zinc finger protein mex-5 (Caenorhabditis elegans, UniProt Q9XUB2); assay: potency of MEX-5 RNA-binding blockers – biochemical, C. elegans, fluorescence polarization, dose response (AID 1960)
T5 sequence (Q9XUB2 whole entry): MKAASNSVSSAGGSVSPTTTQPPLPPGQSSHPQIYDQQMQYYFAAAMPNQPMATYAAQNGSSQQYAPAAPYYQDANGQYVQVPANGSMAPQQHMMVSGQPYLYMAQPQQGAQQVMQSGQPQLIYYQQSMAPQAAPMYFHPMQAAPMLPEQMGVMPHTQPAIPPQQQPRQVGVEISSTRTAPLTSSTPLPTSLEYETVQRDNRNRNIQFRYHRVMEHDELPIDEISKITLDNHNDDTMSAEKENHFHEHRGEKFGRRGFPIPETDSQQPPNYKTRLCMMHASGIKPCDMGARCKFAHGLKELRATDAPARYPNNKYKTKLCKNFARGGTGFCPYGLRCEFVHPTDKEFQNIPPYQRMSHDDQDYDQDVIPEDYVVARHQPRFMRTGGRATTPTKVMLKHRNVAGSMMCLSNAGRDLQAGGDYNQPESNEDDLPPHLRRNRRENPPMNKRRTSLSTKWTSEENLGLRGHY

[14] = target: T6, Aminopeptidase N (Plasmodium falciparum FcB1/Columbia, UniProt O96935); assay: malaria alanyl aminopeptidase activity blockers – biochemical, fluorogenic H-Leu-NHMec substrate, 1536-well (AID 1445); set-up: species or system Plasmodium falciparum 3D7, 3D7
T6 sequence (O96935 whole entry): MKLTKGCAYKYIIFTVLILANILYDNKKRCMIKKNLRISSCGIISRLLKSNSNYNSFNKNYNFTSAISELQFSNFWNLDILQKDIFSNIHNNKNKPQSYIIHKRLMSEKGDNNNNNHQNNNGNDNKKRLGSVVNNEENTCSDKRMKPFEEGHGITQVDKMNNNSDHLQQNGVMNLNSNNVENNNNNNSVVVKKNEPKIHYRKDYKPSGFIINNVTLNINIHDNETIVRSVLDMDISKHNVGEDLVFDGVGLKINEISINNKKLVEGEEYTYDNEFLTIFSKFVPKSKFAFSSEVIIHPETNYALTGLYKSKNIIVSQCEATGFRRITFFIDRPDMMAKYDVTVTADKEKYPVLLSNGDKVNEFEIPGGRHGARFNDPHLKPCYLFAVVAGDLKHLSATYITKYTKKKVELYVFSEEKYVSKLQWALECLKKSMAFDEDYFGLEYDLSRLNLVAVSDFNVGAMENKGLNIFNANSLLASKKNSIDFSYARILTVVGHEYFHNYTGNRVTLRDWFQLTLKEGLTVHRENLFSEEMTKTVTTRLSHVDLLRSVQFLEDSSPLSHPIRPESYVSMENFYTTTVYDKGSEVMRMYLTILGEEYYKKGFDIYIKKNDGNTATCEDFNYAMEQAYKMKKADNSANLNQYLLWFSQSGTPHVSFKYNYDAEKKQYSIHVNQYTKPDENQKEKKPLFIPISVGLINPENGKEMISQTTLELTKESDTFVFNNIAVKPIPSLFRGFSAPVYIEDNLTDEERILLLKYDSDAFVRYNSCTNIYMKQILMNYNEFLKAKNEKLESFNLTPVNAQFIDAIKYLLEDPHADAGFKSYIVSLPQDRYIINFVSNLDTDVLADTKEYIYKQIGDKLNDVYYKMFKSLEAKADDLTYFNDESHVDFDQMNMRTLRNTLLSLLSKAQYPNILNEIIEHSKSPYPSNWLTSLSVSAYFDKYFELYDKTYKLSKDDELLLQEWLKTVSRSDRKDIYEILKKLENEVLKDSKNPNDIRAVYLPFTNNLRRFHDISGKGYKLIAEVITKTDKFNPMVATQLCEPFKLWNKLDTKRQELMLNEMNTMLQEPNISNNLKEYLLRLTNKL

[15] = Luminescence Cell-Based Dose Retest to Confirm Inhibitors of Cancer Stem Cells. [Related pubchem assays (depositor defined):AID2717, AID2721]; assay type: functional; settings: Homo sapiens
[16] = target: Luciferin 4-monooxygenase (Photinus pyralis, UniProt P08659); assay: inhibition of purified Photinus pyralis luciferase – biochemical, luminescence, dose response (AID 1891)
[17] = Luminescence Cell-Based Dose Confirmation HTS to Identify Inhibitors of Platelet Dense Granule Release. [Related pubchem assays: 1663 (Primary HTS), 1678 (Summary of Project)]; assay type: functional

Genome polyprotein, sequence (P29990 2492-3391 limits assumed): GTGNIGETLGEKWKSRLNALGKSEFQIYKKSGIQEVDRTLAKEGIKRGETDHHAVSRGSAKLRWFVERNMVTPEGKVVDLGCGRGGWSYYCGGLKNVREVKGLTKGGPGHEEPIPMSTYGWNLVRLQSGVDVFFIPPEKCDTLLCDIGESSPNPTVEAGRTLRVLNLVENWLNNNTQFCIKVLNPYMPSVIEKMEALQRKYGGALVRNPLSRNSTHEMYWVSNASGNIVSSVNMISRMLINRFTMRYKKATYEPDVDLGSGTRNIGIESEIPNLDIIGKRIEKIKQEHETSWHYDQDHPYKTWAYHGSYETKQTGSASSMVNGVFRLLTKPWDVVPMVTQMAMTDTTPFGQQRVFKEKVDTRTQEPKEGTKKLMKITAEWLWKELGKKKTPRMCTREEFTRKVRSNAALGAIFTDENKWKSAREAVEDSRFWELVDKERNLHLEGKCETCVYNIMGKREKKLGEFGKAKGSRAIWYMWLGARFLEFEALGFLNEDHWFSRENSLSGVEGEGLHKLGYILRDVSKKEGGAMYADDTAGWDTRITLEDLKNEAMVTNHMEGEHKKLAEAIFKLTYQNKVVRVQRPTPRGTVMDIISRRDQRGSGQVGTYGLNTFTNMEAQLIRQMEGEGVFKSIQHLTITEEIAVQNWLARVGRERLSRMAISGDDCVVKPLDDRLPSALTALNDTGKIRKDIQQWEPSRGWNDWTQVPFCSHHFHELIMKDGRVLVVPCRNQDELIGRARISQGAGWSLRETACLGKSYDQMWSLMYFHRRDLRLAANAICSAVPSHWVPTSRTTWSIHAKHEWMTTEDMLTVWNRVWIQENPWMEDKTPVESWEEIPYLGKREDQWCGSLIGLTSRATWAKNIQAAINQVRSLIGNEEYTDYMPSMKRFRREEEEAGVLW
T2 sequence (P49327 whole entry): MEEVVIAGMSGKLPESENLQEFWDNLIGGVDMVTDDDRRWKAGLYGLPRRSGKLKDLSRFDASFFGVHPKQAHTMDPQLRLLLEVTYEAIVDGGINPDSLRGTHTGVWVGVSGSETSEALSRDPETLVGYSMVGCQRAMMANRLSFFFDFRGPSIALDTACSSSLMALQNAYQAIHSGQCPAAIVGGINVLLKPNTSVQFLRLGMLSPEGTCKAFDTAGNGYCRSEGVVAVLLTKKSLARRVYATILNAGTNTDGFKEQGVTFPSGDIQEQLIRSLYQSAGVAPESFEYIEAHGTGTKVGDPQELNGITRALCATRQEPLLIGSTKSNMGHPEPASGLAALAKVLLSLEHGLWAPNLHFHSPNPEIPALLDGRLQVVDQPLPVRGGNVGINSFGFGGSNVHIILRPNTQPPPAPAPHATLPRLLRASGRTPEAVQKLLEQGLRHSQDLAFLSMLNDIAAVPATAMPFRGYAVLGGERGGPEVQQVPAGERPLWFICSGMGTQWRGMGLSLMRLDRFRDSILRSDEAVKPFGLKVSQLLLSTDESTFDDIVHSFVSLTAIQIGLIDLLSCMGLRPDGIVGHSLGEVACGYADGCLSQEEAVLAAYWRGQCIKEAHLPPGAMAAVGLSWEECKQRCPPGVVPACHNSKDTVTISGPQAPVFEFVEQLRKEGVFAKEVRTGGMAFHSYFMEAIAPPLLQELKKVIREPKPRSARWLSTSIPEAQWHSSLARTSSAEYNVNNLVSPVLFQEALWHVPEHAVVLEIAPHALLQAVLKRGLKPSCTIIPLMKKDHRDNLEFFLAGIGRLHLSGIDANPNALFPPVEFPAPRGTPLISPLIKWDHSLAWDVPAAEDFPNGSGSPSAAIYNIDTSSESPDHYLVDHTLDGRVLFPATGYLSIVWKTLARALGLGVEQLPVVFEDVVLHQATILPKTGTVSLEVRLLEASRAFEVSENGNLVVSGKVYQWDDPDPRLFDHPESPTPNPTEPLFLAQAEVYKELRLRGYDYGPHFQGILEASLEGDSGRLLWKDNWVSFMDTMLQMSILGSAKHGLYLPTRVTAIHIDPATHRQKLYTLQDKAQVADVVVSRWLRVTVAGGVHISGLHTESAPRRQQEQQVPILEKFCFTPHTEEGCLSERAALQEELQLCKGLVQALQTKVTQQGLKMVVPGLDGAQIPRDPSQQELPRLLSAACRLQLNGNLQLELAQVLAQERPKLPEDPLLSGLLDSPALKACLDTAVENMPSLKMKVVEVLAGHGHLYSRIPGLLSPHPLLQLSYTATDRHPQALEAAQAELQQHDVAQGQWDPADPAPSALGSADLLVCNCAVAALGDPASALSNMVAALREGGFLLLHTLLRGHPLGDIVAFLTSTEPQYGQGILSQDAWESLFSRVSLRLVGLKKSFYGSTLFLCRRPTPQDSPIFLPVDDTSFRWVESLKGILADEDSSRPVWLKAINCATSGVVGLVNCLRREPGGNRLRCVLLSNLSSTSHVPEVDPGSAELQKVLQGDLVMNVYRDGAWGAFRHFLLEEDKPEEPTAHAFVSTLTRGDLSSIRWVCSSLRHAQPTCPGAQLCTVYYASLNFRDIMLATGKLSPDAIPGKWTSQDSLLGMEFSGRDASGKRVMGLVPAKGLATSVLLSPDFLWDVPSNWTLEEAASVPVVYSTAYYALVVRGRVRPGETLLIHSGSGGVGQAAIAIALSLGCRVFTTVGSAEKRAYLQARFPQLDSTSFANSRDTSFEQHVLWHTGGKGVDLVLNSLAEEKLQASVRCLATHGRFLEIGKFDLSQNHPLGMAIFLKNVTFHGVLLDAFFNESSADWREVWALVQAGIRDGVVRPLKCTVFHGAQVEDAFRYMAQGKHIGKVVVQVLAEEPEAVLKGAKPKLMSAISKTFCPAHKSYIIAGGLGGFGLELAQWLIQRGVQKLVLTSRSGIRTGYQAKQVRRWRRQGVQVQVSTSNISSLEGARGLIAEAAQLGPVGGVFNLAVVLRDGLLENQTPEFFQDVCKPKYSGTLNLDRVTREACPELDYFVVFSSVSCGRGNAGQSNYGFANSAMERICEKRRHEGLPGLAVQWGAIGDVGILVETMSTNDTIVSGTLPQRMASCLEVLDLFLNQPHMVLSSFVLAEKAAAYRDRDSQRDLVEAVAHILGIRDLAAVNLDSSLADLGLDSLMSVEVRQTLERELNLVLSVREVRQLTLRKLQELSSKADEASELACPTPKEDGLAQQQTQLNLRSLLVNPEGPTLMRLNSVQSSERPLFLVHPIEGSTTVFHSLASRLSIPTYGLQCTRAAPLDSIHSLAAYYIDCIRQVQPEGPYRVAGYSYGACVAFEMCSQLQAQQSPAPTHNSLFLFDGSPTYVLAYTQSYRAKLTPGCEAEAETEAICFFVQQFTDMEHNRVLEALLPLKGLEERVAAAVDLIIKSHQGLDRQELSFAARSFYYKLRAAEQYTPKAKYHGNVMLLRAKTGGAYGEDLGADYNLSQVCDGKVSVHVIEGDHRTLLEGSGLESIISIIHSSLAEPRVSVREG
Luciferin 4-monooxygenase, sequence (P08659 whole entry): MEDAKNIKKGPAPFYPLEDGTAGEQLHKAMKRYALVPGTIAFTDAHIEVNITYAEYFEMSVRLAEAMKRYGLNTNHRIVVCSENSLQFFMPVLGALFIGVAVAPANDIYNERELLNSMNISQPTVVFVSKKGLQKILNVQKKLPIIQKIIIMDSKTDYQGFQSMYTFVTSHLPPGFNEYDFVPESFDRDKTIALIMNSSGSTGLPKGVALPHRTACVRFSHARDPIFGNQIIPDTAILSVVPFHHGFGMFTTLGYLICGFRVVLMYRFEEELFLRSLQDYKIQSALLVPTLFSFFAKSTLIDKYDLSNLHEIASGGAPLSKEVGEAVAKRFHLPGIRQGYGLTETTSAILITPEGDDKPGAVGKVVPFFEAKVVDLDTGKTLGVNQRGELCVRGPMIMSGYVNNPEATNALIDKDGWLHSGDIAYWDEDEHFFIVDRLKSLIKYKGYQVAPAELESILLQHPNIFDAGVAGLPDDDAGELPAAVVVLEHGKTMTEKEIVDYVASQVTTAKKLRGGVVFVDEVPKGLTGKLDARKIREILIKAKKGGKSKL

## C[C@H]1CN([C@@H](C)CO)C(=O)Cc2cc(NC(=O)Cc3cn(C)c4ccccc34)ccc2O[C@H]1CN(C)Cc1ccc(C(F)(F)F)cc1
[1]
  AC50: 1.81 µM (active)

## COc1ccc(C2=Nn3c(nnc3-c3ccco3)SC2)cc1
[2]
  IC50: 9.61 µM (not active)

## CS(=O)(=O)N1CCc2cc(-c3csc(NC(=O)Cc4cccs4)n3)ccc21
[3]
  EC50: 0.586 µM (active)
[4]
  IC50: 9.27 µM (active)
[5]
  IC50: 6.53 µM (active)
[6]
  EC50: > 60 µM (not active)
[7]
  AC50: 27.1 µM (active)
[8]
  AC50: 27.1 µM (active)
[9]
  AC50: 9.65 µM (active)

## COc1ccc(C(CNC(=O)c2cccc(Br)c2)N2CCCC2)cc1 (centres undefined)
[10]
  EC50: 1.68 µM (active)

## O=C(O)CN1C(=O)/C(=C\c2ccccc2OCc2ccccc2)SC1=S
[11]
  IC50: 35.8 µM (active)

## O=C1c2ccccc2C(=O)N1CCCCCc1nc(-c2ccccc2)no1
[2]
  IC50: 3.34 µM (not active)

## Cc1ccc(/C=N\NC(=O)C2COc3cc4ccccc4cc3O2)o1 (centres undefined)
[10]
  EC50: 1.88 µM (active)

## Cc1cc(/C=C2\C(=O)NC(=O)N(c3ccccc3)C2=O)c(C)n1-c1ccc(C(=O)O)c(Cl)c1
[11]
  IC50: 63.7 µM (active)
[12]
  EC50: > 300 µM (not active)
[13]
  EC50: > 300 µM (not active)

## CCOC(=O)NN1C(=O)c2ccccc2NC12CCCC2
[14]
  IC50: 32.6 µM (active)

## CCOC(=O)C(=CN=C(N)Nc1nc2ccccc2o1)C(=O)OCC
[14]
  IC50: 79.2 µM (active)

## Oc1ccc(C[C@@H]2CN=C(S)N2CCCCC2CCCCC2)cc1
[2]
  IC50: 12.2 µM (not active)
[15]
  AC50: 5.41 µM (active)

## O=C(NCCc1ccccn1)C(F)(F)C(F)(F)C(F)(F)C(F)(F)C(F)(F)C(F)F
[16]
  EC50: > 112 µM (not active)
[17]
  EC50: > 112 µM (not active)
[10]
  EC50: 4.73 µM (active)

## Cc1c(O)ccc(C(=O)CN2C(=O)c3ccccc3C2=O)c1O
[2]
  IC50: 7.96 µM (not active)

## CCCOc1ccc(C(F)(F)F)cc1NC(=O)CCc1c(C)noc1C
[7]
  AC50: 11.6 µM (active)
[8]
  AC50: 24.2 µM (active)
[9]
  AC50: 51.4 µM (active)

## O=C1c2ccc(Br)cc2C(=O)N1c1ccc(Cc2ccncc2)cc1
[2]
  IC50: 4.86 µM (not active)

## O=C(NC1CCCCC1)NC1CCN(C(=S)NCc2ccco2)CC1
[14]
  IC50: 66.3 µM (active)

## O=C(c1ccccc1F)N1CCN(Cc2cccc(Cl)c2)CC1
[8]
  AC50: > 70 µM (inactive)
[9]
  AC50: 3.83 µM (active)

## CCOc1cc(/C=N/NC2=NC(=O)C(CC(=O)O)S2)ccc1OS(=O)(=O)c1ccc(C)cc1 (centres undefined)
[14]
  IC50: 47.8 µM (active)

## COc1ccc(C(=O)N2c3cc4c(cc3C(C)=CC2(C)C)OCO4)cc1
[2]
  IC50: 6.36 µM (not active)

## COc1cc(OC)c(NS(=O)(=O)c2ccc(Cl)c(C(=O)OC(C)C(=O)N3CCCC3)c2)cc1Cl (centres undefined)
[14]
  IC50: 38.6 µM (active)

## COc1ccc(C(=O)Nc2cc(C)ccc2NC(=O)COc2ccccc2)cc1
[2]
  IC50: 1.51 µM (not active)

## Cn1c(NCc2ccco2)nc2c1c(=O)n(Cc1ccc(Cl)c(Cl)c1)c(=O)n2C
[2]
  IC50: 4.09 µM (not active)

## COc1ccc(C(CNC(=O)CN2C(=O)NC3(CCCC3)C2=O)N(C)C)cc1 (centres undefined)
[10]
  EC50: 3.76 µM (active)

## CCN1CCN(c2ccc(S(=O)(=O)N3CCOCC3)cc2NC(=O)C(C)Oc2cccc(Cl)c2)CC1 (centres undefined)
[10]
  EC50: 5.96 µM (active)

## Cc1ccc(S(=O)(=O)Oc2ccccc2C=C2C(=O)NC(=O)NC2=O)cc1
[11]
  IC50: 36.8 µM (active)
